The target in one experiment is α3β2 nicotinic receptor (Homo sapiens, UniProt P17787+P32297). Particulars: Column A with α3β2, 24 cm, 50 nM injection, 10 mM Amm Acetate pH 7.4 and 1 nM dinitrobenzoic acid, 261 nm. As to the method: (§1) A parallel screen was run using two separate columns containing the different nicotinic receptors α3β2 and […] in the separate columns. […] The mobile phase contained 10 mM Amm Acetate at pH 7.4 and 1 nM Dinitrobenzoic acid. The columns were 24 cm in length.

For the next experiment, the target named is α3β4 nicotinic receptor (Homo sapiens, UniProt P30926+P32297). The conditions noted are these: Column B with α3β4, 24 cm, 50 nM injection, 10 mM Amm Acetate pH 7.4 and 1 nM dinitrobenzoic acid, 261 nm. As for the experimental part:
as §1

α3β2 nicotinic receptor, sequence (P32297 32-505): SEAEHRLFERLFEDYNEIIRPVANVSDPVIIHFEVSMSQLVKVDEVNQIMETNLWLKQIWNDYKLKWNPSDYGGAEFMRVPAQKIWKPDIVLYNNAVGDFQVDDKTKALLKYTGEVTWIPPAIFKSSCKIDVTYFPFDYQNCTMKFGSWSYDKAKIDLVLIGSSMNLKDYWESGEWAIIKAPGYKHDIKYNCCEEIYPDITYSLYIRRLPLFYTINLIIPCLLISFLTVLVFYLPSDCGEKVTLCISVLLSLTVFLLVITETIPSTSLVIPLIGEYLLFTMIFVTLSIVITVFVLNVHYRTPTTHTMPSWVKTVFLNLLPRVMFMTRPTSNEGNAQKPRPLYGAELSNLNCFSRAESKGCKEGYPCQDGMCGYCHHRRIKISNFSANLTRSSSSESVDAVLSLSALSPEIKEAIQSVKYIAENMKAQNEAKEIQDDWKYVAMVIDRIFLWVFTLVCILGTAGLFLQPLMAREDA
α3β2 nicotinic receptor, sequence (P17787 26-502): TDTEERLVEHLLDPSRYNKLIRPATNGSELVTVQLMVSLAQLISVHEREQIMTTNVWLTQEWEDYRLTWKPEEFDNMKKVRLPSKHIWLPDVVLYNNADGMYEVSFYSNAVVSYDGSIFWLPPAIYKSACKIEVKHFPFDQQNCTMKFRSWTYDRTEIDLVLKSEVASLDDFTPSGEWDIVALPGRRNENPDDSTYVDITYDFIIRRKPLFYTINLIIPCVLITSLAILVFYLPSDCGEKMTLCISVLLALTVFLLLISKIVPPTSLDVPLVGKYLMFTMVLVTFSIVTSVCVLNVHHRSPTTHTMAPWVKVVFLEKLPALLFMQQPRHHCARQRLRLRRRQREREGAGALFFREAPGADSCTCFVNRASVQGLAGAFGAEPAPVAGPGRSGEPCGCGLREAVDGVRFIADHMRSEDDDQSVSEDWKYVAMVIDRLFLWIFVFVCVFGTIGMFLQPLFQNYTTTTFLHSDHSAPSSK
α3β4 nicotinic receptor, sequence (P32297 32-505): as the sequence (P32297 32-505) above
α3β4 nicotinic receptor, sequence (P30926 22-498): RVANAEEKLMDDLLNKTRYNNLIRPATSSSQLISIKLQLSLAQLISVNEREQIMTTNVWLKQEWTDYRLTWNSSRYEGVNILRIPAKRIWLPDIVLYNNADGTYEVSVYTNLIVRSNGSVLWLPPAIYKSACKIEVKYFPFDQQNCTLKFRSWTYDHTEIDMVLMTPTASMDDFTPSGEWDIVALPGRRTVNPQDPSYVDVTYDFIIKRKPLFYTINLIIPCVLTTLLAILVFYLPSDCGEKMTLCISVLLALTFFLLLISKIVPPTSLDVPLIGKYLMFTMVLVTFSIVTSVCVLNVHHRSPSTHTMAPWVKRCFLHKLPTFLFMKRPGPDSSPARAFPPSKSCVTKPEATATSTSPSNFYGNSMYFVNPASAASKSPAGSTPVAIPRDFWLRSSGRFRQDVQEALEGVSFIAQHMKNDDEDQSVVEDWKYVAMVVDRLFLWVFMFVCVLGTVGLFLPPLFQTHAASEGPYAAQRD

Regarding `CN1CCCC1c1cccnc1` (centres unmarked) [nicotine], the entries for the “time on receptor column” value at α3β2 nicotinic receptor and at α3β4 nicotinic receptor were 2.25 min and 0.98 min, respectively.
